Reference: patent US11459336B2, “Pyrazine carbamates and their use as GluN2B receptor modulators” (JANSSEN PHARMACEUTICA NV, priority 2019, dated 2022)

Biological target: T1, human GluN1/GluN2B NMDA receptors (Homo sapiens, UniProt Q05586+Q13224)
T1 construct: expressed in transfected cells
Assay: Calcium flux (FLIPR) assay on cloned human GluN1/GluN2B ion channels expressed in mammalian cells, standard assay
Assay type: cell-based
Conditions: glutamate ~EC40, 10 μM glycine, stable cell line with Tet-On induced expression
Protocol: (§1) NMDA receptors are ion channels that are highly permeable to Ca^2+ ions, rendering it possible to monitor NMDA receptor function using cell-based calcium flux assay. In this assay, co-agonists glutamate and glycine are added to cells heterologously expressing human GluN1/GluN2B NMDA receptors to initiate cellular Ca^2+ influx. The time course of the changes in intracellular calcium is measured using a fluorescent dye and a FLIPR (Fluorometric Imaging Plate Reader) device.
(§2) Twenty four hours before measurements, the expression of the NMDA receptors in the stable cell line is induced with Tet-On inducible system in the presence of a non-selective NMDA receptor blocker. On the day of the experiment, cell culture media is carefully washed and the cells are loaded with Calcium 5 Dye Kit (Molecular Devices) in dye loading buffer containing 137 mM NaCl, 4 mM KCl, 2 mM CaCl2, 0.5 mM MgCl2 (standard assay) or 1.5 mM MgCl2 (HTS assay), 10 mM HEPES and 5 mM D-glucose; pH 7.4. After 1 h incubation at the room temperature, the dye is washed away with the assay buffer (137 mM NaCl (standard assay) or 150 mM (HTS assay), 4 mM KCl (standard assay) or 3 mM (HTS assay), 2 mM CaCl2, 0.01 mM EDTA, 10 mM HEPES and 5 mM D-glucose; pH 7.4) In the FLIPR TETRA reader, various concentrations of the test compounds are added to the cells for 5 min while fluorescence is monitored to detect potential agonist activity. Next, co-agonists, glutamate and glycine are added for another 5 minutes. The concentration of glutamate corresponding to ˜EC40 (standard assay) or EC40 (HTS assay) is used to maximize the assay's signal window and ability to detect NMDA receptor antagonists and negative allosteric modulators. A saturating concentration (10 μM) of glycine is also present in the assay. A non-selective NMDA receptor antagonist, (+)MK-801 is used as a positive control for antagonist activity. The fluorescent signal in the presence of test compounds is quantified and normalized to the signal defined by the appropriate control wells.

T1 sequence (Q13224 27-1484, other chains not shown): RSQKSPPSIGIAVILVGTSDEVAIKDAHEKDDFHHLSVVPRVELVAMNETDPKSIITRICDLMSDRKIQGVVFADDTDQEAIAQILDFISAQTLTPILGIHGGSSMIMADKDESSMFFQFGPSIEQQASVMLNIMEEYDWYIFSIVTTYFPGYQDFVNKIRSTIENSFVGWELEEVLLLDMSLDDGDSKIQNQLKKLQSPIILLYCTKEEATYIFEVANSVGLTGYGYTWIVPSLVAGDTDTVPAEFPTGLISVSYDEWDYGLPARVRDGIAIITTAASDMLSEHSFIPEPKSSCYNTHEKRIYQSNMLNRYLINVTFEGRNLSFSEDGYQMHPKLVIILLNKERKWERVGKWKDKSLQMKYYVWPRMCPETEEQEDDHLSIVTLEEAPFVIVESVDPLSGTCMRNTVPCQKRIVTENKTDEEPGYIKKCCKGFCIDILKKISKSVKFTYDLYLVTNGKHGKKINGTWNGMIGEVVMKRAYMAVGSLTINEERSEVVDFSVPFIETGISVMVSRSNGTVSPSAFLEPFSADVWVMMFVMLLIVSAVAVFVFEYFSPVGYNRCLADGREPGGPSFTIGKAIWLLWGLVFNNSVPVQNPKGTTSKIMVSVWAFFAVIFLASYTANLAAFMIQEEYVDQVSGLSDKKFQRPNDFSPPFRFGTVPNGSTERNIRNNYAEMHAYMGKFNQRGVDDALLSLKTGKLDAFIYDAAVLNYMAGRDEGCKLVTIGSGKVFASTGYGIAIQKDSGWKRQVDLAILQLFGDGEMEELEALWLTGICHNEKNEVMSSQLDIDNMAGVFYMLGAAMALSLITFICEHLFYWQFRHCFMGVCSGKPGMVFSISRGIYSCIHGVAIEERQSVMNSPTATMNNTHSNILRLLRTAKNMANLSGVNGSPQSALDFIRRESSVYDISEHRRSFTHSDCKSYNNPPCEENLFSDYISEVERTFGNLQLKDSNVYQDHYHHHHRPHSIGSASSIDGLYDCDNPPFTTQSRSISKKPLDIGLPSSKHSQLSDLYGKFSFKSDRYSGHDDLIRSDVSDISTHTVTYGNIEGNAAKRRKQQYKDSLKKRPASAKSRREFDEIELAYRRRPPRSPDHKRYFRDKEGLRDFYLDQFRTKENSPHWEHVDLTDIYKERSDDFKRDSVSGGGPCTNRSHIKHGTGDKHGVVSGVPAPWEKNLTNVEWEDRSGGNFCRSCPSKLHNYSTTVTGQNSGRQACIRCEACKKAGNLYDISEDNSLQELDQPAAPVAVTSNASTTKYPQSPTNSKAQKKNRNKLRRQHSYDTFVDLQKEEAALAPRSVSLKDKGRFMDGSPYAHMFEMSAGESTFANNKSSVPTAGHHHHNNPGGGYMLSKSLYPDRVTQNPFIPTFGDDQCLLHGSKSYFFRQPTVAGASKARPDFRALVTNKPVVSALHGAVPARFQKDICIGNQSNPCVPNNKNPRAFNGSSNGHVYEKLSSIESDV

Row | IC50 [nM] | Structure (SMILES)
1 | 1390 | CN(C)C(=O)C1CN(Cc2cncc(-c3ccc(Cl)c(OC(F)F)c3)n2)C(=O)O1 (racemic) [Example 55, (R/S)-3-[[6-[4-Chloro-3-(difluoromethoxy)phenyl]pyrazin-2-yl]methyl]-N,N-dimethyl-2-oxo-oxazolidine-5-carboxamide]
2 | 2050 | CNC(=O)C1CN(Cc2cncc(-c3ccc(Cl)c(OC(F)F)c3)n2)C(=O)O1 (racemic) [Example 56, (R/S)-3-[[6-[4-Chloro-3-(difluoromethoxy)phenyl]pyrazin-2-yl]methyl]-N-methyl-2-oxo-oxazolidine-5-carboxamide]
3 | > 3000 | O=C1OC(C(=O)N2CCC2)CN1Cc1cncc(-c2ccc(F)c(C(F)F)c2)n1 (racemic) [Example 58, (R/S)-5-(Azetidine-1-carbonyl)-3-[[6-[3-(difluoromethyl)-4-fluoro-phenyl]pyrazin-2-yl]methyl]oxazolidin-2-one]
4 | 5390 | CNC(=O)C1CN(Cc2cncc(-c3ccc(F)c(OC(F)F)c3)n2)C(=O)O1 (racemic) [Example 60, (R/S)-3-[[6-[3-(Difluoromethoxy)-4-fluoro-phenyl]pyrazin-2-yl]methyl]-N-methyl-2-oxo-oxazolidine-5-carboxamide]

Biological target: T2, human GluN1/GluN2B NMDA receptors (Homo sapiens, UniProt Q13224)
T2 construct: expressed in transfected cells
T2 sequence (Q13224 27-1484, other chains not shown): as above
Assay: as above
Assay type: cell-based
Conditions: glutamate ~EC40, 10 μM glycine, stable cell line with Tet-On induced expression
Protocol: as §1, §2

Row | IC50 [nM] | Structure (SMILES)
5 | 21 | C[C@@H]1COC(=O)N1Cc1cncc(-c2ccc(Cl)c(OC(F)F)c2)n1 [Example 33, (4R)-3-[[6-[4-Chloro-3-(difluoromethoxy)phenyl]pyrazin-2-yl]methyl]-4-methyl-oxazolidin-2-one]
6 | 86 | C[C@H]1COC(=O)N1Cc1cncc(-c2ccc(Cl)c(OC(F)F)c2)n1 [Example 34, (4S)-3-[[6-[4-Chloro-3-(difluoromethoxy)phenyl]pyrazin-2-yl]methyl]-4-methyl-oxazolidin-2-one]
7 | 13 | O=C1OCCCN1Cc1cncc(-c2ccc(Cl)c(OC(F)F)c2)n1 [Example 35, 3-[[6-[4-Chloro-3-(difluoromethoxy)phenyl]pyrazin-2-yl]methyl]-1,3-oxazinan-2-one]
8 | 113 | Cc1ncc(-c2ccc(Cl)c(OC(F)F)c2)nc1CN1CC2(CC2)OC1=O [Example 36, 5-[[6-[4-Chloro-3-(difluoromethoxy)phenyl]-3-methyl-pyrazin-2-yl]methyl]-7-oxa-5-azaspiro[2.4]heptan-6-one]
9 | 18 | Cc1ncc(-c2ccc(Cl)c(OC(F)F)c2)nc1CN1CCCOC1=O [Example 37, 3-[[6-[4-Chloro-3-(difluoromethoxy)phenyl]-3-methyl-pyrazin-2-yl]methyl]-1,3-oxazinan-2-one]
10 | 17 | CC(F)(F)c1cccc(-c2cncc(CN3CC4(CC4)OC3=O)n2)c1 [Example 38, 5-[[6-[3-(1,1-Difluoroethyl)phenyl]pyrazin-2-yl]methyl]-7-oxa-5-azaspiro[2.4]heptan-6-one]
11 | 4510 | CC1(C)CN(Cc2cncc(-c3cccc(C(C)(F)F)c3)n2)C(=O)O1 [Example 39, 3-[[6-[3-(1,1-Difluoroethyl)phenyl]pyrazin-2-yl]methyl]-5,5-dimethyl-oxazolidin-2-one]
12 | 39 | C[C@@H]1CN(Cc2cncc(-c3cccc(C(C)(F)F)c3)n2)C(=O)O1 [Example 40, (5R)-3-[[6-[3-(1,1-Difluoroethyl)phenyl]pyrazin-2-yl]methyl]-5-methyl-oxazolidin-2-one]
13 | 167 | C[C@H]1CN(Cc2cncc(-c3cccc(C(C)(F)F)c3)n2)C(=O)O1 [Example 41, (5S)-3-[[6-[3-(1,1-Difluoroethyl)phenyl]pyrazin-2-yl]methyl]-5-methyl-oxazolidin-2-one]
14 | 105 | CC(F)(F)c1cccc(-c2cncc(CN3CCCOC3=O)n2)c1 [Example 42, 3-[[6-[3-(1,1-Difluoroethyl)phenyl]pyrazin-2-yl]methyl]-1,3-oxazinan-2-one]
15 | 203 | Cc1ncc(-c2cccc(C(C)(F)F)c2)nc1CN1CC2(CC2)OC1=O [Example 43, 5-[[6-[3-(1,1-Difluoroethyl)phenyl]-3-methyl-pyrazin-2-yl]methyl]-7-oxa-5-azaspiro[2.4]heptan-6-one]
16 | > 3000 | Cc1ncc(-c2cccc(C(C)(F)F)c2)nc1CN1CC(C)(C)OC1=O [Example 44, 3-[[6-[3-(1,1-Difluoroethyl)phenyl]-3-methyl-pyrazin-2-yl]methyl]-5,5-dimethyl-oxazolidin-2-one]
17 | 127 | Cc1ncc(-c2cccc(C(C)(F)F)c2)nc1CN1CCCOC1=O [Example 45, 3-[[6-[3-(1,1-Difluoroethyl)phenyl]-3-methyl-pyrazin-2-yl]methyl]-1,3-oxazinan-2-one]
18 | 166 | C[C@@H]1COC(=O)N1Cc1cncc(-c2ccc(F)c(C(C)(F)F)c2)n1 [Example 46, (4R)-3-[[6-[3-(1,1-Difluoroethyl)-4-fluoro-phenyl]pyrazin-2-yl]methyl]-4-methyl-oxazolidin-2-one]
19 | 624 | C[C@H]1COC(=O)N1Cc1cncc(-c2ccc(F)c(C(C)(F)F)c2)n1 [Example 47, (4S)-3-[[6-[3-(1,1-Difluoroethyl)-4-fluoro-phenyl]pyrazin-2-yl]methyl]-4-methyl-oxazolidin-2-one]
20 | 124 | CC(F)(F)c1cccc(-c2cncc(CN3CCC4(CC4)OC3=O)n2)c1 [Example 48, 6-[[6-[3-(1,1-Difluoroethyl)phenyl]pyrazin-2-yl]methyl]-8-oxa-6-azaspiro[2.5]octan-7-one]
21 | 48 | O=C1OC2(CCN1Cc1cncc(-c3ccc(F)c(OC(F)F)c3)n1)CC2 [Example 49, 6-[[6-[3-(Difluoromethoxy)-4-fluoro-phenyl]pyrazin-2-yl]methyl]-8-oxa-6-azaspiro[2.5]octan-7-one]
22 | 49 | O=C1OC2(CCN1Cc1cncc(-c3ccc(Cl)c(OC(F)F)c3)n1)CC2 [Example 50, 6-[[6-[4-Chloro-3-(difluoromethoxy)phenyl]pyrazin-2-yl]methyl]-8-oxa-6-azaspiro[2.5]octan-7-one]
23 | 61 | O=C1OC2(CCN1Cc1cncc(-c3ccc(F)c(C(F)F)c3)n1)CC2 [Example 52, 6-[[6-[3-(Difluoromethyl)-4-fluoro-phenyl]pyrazin-2-yl]methyl]-8-oxa-6-azaspiro[2.5]octan-7-one]
24 | 102 | Cc1ncc(-c2ccc(F)c(C(F)F)c2)nc1CN1CCC2(CC2)OC1=O [Example 53, 6-[[6-[3-(Difluoromethyl)-4-fluoro-phenyl]-3-methyl-pyrazin-2-yl]methyl]-8-oxa-6-azaspiro[2.5]octan-7-one]
25 | 74 | Cc1ncc(-c2ccc(F)c(OC(F)F)c2)nc1CN1CCC2(CC2)OC1=O [Example 54, 6-[[6-[3-(Difluoromethoxy)-4-fluoro-phenyl]-3-methyl-pyrazin-2-yl]methyl]-8-oxa-6-azaspiro[2.5]octan-7-one]
26 | 2000 | O=C1OC(C(=O)N2CCC2)CN1Cc1cncc(-c2ccc(Cl)c(OC(F)F)c2)n1 (stereo not shown) [Example 57, 5-(Azetidine-1-carbonyl)-3-[[6-[4-chloro-3-(difluoromethoxy)phenyl]pyrazin-2-yl]methyl]oxazolidin-2-one]
27 | 530 | O=C1OC2(CNC2)CN1Cc1cncc(-c2ccc(Cl)c(OC(F)F)c2)n1 [Example 67, 6-[[6-[4-Chloro-3-(difluoromethoxy)phenyl]pyrazin-2-yl]methyl]-8-oxa-2,6-diazaspiro[3.4]octan-7-one]
28 | 599 | CN1CC2(C1)CN(Cc1cncc(-c3ccc(Cl)c(OC(F)F)c3)n1)C(=O)O2 [Example 68, 6-[[6-[4-Chloro-3-(difluoromethoxy)phenyl]pyrazin-2-yl]methyl]-2-methyl-8-oxa-2,6-diazaspiro[3.4]octan-7-one]
